Where “and” joins values, the source holds several entries; their conditions need not be identical. Identical values can stand only once. Entries after “also recorded” stand apart in the source; their conditions may differ. Like-named read-outs stand apart in the source and are kept apart here.
What was measured:
Assay type in all cases: physicochemical
[1] = Eluting test of the material from the material-containing film (ISO10993-10 Annex E, methanol extraction)
Protocol: In Example 1, the operation was performed in the same manner as in Example 1 except that 100 mg of the near infrared fluorescent material A was used, a material-containing TPU film having a thickness of about 300 μm and having a material concentration of the near infrared fluorescent material A of 0.1% by mass was prepared.
An Eluting test of the obtained material-containing TPU film was performed. The eluting operation of the film was performed as follows according to ISO10993-10AnnexE. 5 g of the material-containing TPU film was cut into a size of 2 cm×2 cm, and then was put into a 300 mL conical flask with 100 mL of methanol, followed by shaking at 25° C. of room temperature for 8 hours. Next, the methanol was separated by filtration once, and the resultant product was extracted two times with the same amount of methanol by using the same film fine piece. The methanol extracted liquid obtained by the total three times of operations was concentrated by an evaporator, and the residues were melted with 5 mL of dichloromethane to obtain a test liquid.
The absorption spectrum and the light emission spectrum of the obtained test liquid were measured. As a result, the absorption and the fluorescent derived from the near infrared fluorescent material A could not be confirmed. […] Since the near infrared fluorescent material A was hardly eluted, a medical implant having high safeness which is molded using the resin composition according to the present invention was obtained.

[2] = Absorption spectrum of material-containing resin film (spectrophotometer UV3600)
Protocol: TPU pellets (Tecoflex EG85A, manufactured by Lubrizol Corp.) (100 g) and a near infrared fluorescent material A (5 mg) synthesized in Preparation Example 1 were mixed, and the mixture was attached to the pellet surfaces.
Next, the pellets were put into Labo Plastomill, and melt-kneaded (kneading) at a set temperature of 190° C. for 10 minutes. Thereafter, the kneaded material-containing resin was taken out, and made to be a film.
The film was obtained in the following manner. First, the material-containing resin was heated for 5 minutes while being sandwiched between iron plates heated to 200° C., and pressed at […] while the steel plates were cooled. […]

[3] = Emission (fluorescence) spectrum and fluorescence quantum yield of material-containing resin film (Quantaurus-QY C11347)
[4] = Absorption spectrum of material-containing resin film (spectrophotometer UV3600); settings: PP film, material 10 mg per 100 g PP (Example 2)
[5] = TPU film, material 0.1% by mass, about 300 μm, methanol, 25° C., 8 hours, three extractions
[6] = TPU film, material 5 mg per 100 g TPU (0.005% by mass), melt-kneaded at 190° C.
[7] = PP film, material 10 mg per 100 g PP (Example 2)
[8] = methanol extract of TPU film, residues in dichloromethane

Question: For `CCCCCCCCOc1ccc(-c2c3c4n(c(-c5ccc(OCCCCCCCC)cc5)c3c3n2[B-](F)(F)[n+]2c(ccc5cc(C(C)(C)C)ccc52)C=3C#N)[B-](F)(F)[n+]2c(ccc3cc(C(C)(C)C)ccc32)C=4C#N)cc1` [near infrared fluorescent material F], which “Presence or absence of material elution” value [1] is on record?
Answer: not eluted; also recorded: Absence

Question: And the Absorption peak [2]?
Answer: 764 nm and 767 nm

Question: What about the Fluorescence peak [3] of the same compound?
Answer: 774 nm and 870 nm

Question: What about the Quantum yield [3] of the same compound?
Answer: 35%

Question: For `COc1ccc(-c2cc3c(s2)=CC2=C(C(F)(F)F)c4cc5sc(-c6ccc(OC)cc6)cc5n4[B-](F)(F)[N+]=32)cc1` [near infrared fluorescent material D], which “Presence or absence of material elution” value [1] is on record?
Answer: not eluted; also recorded: Absence

Question: What about the Absorption peak [2] of the same compound?
Answer: 737 nm

Question: And the Fluorescence peak [3]?
Answer: 765 nm

Question: What about the Quantum yield [3] of the same compound?
Answer: 17%

Question: With `CCCCCCCCOc1ccc(-c2c3c4n(c(-c5ccc(OCCCCCCCC)cc5)c3c3n2[B-](F)(F)[n+]2c(sc5cc(C(C)(C)C)ccc52)C=3C#N)[B-](F)(F)[n+]2c(sc3cc(C(C)(C)C)ccc32)C=4C#N)cc1` [near infrared fluorescent material B] as the compound, how does the “Presence or absence of material elution” value [1] read?
Answer: not eluted; also recorded: Absence

Question: And the Absorption peak [2]?
Answer: 739 nm and 738 nm and 737 nm and 736 nm

Question: What about the Fluorescence peak [3] of the same compound?
Answer: 758 nm and 833 nm and 756 nm and 834 nm and 753 nm and 754 am nm and 751 nm and 825 nm

Question: What about the Quantum yield [3] of the same compound?
Answer: 36% and 34% and 39% and 46%

Question: For `COc1ccc(-c2cc3c(o2)=CC2=C(C(F)(F)F)c4cc5oc(-c6ccc(OC)cc6)cc5n4[B-](F)(F)[N+]=32)cc1` [near infrared fluorescent material A], which Absorption peak [4] is on record?
Answer: 730 nm

Question: And the “Presence or absence of material elution” value [1, 5]?
Answer: hardly eluted; also recorded: Absence

Question: What about the Absorption peak [2, 6] of the same compound?
Answer: 730 nm

Question: And the Fluorescence peak [3, 7]?
Answer: 810 nm

Question: And the Quantum yield [3, 7]?
Answer: 24%

Question: And the Quantum yield [3, 6]?
Answer: 26%

Question: What does the source list for `CCN1/C(=C\C=C2/CCC(/C=C/c3sc4ccc(Cl)cc4[n+]3CC)=C2N(c2ccccc2)c2ccccc2)Sc2ccc(Cl)cc21` [IR-140, reference compound]?
Answer: Presence or absence of material elution [1, 5]: eluted; also recorded: Presence; Presence or absence of material elution ([1]; TPU film, material 0.1% by mass, about 300 μm, methanol, 25° C., 8 hours, three extractions, listed as Comparative Example 1): elutes; light emission peak wavelength of the fluorescence spectrum in the test liquid of the eluting test [1, 8]: 846 nm; peak wavelength of the absorption spectrum in the test liquid of the eluting test [1, 8]: 812 nm

Question: Which results are given for `CCCCC(CC)COc1ccc(-c2c3c4n(c(-c5ccc(OCC(CC)CCCC)cc5)c3c3n2[B-](c2ccccc2)(c2ccccc2)[n+]2c(oc5ccc(C(C)(C)C)cc52)C=3C#N)[B-](c2ccccc2)(c2ccccc2)[n+]2c(oc3ccc(C(C)(C)C)cc32)C=4C#N)cc1` (stereo not shown) [near infrared fluorescent material H]?
Answer: Presence or absence of material elution [1]: not eluted; also recorded: Absence; Absorption peak [2]: 744 nm; Fluorescence peak [3]: 787 nm and 865 nm; Quantum yield [3]: 36%

Question: Which “Presence or absence of material elution” value [1] does the source give for `CCCCCCCCOc1ccc(-c2c3c4n(c(-c5ccc(OCCCCCCCC)cc5)c3c3n2[B-](c2ccccc2)(c2ccccc2)[n+]2c(C)cc(C)nc2C=3C#N)[B-](c2ccccc2)(c2ccccc2)[n+]2c(C)cc(C)nc2C=4C#N)cc1` [near infrared fluorescent material G] here?
Answer: not eluted; also recorded: Absence

Question: What about the Absorption peak [2] of the same compound?
Answer: 756 nm

Question: What about the Fluorescence peak [3] of the same compound?
Answer: 778 nm and 870 nm

Question: What about the Quantum yield [3] of the same compound?
Answer: 35%

Question: For `F[B-]1(F)n2c(cc3sc(-c4cccs4)cc32)C(C(F)(F)F)=C2C=c3sc(-c4cccs4)cc3=[N+]21` [near infrared fluorescent material E], which “Presence or absence of material elution” value [1, 5] is on record?
Answer: not eluted; also recorded: Absence

Question: What about the Absorption peak [2, 6] of the same compound?
Answer: 741 nm

Question: And the Fluorescence peak [3, 6]?
Answer: 772 nm

Question: What about the Quantum yield [3, 6] of the same compound?
Answer: 11%
